The source made the active and inactive calls.
How the values were obtained:
[1] = NIH/3T3 cell viability loss – mouse embryonic fibroblasts, dry powder, set 2, cytotoxicity control, dose response (AID 493247); format: functional, cell-based; conditions: Fibroblast
Trypanosoma cruzi = experiment: anti-trypanosomal activity in host cells – cell-based, plate reader, dry powder, set 3, dose response (AID 493197); format: functional
[2] = T. cruzi infection blockers in NIH3T3 cells – beta-gal luminescence, NIH3T3 host cells, confirmation (AID 2630); format: functional, cell-based; conditions: Mus musculus
Hexokinase HKDC1 = target: T1, Hexokinase HKDC1 (Homo sapiens, UniProt Q2TB90); experiment: analog inhibition of human HKDC1 activity – biochemical, set 2, SAR follow-up (AID 588355); format: functional
T1 sequence (Q2TB90 whole entry): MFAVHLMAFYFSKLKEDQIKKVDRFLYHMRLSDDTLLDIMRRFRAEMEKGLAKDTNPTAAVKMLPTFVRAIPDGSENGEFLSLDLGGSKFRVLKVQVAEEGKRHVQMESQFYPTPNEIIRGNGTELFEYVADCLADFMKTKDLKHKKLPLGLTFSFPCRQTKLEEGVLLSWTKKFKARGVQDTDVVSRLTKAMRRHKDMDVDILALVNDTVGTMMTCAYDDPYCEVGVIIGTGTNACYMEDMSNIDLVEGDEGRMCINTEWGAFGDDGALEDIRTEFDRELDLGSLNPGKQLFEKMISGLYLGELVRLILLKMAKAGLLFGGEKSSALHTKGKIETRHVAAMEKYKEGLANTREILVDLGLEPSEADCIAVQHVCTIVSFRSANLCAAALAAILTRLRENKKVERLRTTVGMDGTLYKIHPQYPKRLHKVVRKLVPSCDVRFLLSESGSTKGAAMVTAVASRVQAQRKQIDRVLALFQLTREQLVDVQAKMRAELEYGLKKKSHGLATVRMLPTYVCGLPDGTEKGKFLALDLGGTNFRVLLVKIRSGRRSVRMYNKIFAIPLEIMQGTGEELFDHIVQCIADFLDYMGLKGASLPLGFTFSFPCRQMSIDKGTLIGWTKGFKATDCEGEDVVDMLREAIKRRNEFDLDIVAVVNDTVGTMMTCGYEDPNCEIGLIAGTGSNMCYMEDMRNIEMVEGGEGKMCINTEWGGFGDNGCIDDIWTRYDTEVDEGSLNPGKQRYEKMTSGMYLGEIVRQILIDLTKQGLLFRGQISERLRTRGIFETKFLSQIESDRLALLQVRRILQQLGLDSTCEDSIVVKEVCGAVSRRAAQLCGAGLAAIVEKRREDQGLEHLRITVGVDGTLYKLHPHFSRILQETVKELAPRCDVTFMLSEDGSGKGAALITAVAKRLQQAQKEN

Hexokinase-1 = target: T2, Hexokinase-1 (Homo sapiens, UniProt P19367); experiment: hexokinase 1 activity inhibitors, potency – biochemical, set 2, resazurin fluorescence coupled readout, selectivity assay for HKDC1 inhibitor project, SAR follow-up (AID 588356); format: functional
T2 sequence (P19367 whole entry): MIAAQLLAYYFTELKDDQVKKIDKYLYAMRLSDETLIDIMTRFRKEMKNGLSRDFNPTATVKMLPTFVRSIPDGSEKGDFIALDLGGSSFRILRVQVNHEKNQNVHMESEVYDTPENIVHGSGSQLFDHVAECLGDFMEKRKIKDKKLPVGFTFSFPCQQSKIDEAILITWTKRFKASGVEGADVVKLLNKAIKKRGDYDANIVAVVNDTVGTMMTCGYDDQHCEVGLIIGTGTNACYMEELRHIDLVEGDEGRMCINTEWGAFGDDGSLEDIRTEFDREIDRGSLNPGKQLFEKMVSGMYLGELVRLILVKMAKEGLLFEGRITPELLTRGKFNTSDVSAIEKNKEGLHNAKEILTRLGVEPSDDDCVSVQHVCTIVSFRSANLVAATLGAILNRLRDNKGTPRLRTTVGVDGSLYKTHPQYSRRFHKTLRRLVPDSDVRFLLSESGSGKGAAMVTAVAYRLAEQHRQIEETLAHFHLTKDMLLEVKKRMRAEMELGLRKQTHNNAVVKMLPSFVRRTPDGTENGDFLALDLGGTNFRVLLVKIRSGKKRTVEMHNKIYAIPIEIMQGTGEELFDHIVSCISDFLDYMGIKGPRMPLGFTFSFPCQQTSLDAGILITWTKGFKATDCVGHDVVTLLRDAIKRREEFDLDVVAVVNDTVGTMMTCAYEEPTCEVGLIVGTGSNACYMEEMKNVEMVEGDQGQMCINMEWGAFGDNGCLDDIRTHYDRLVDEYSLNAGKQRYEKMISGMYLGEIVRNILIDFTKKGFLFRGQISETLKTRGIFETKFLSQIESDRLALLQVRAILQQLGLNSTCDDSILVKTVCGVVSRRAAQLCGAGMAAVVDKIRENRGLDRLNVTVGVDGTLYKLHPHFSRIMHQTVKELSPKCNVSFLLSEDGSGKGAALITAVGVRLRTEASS

[3] = target: Voltage-gated inwardly rectifying potassium channel KCNH2 (Homo sapiens, UniProt Q12809); conditions: Potency;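 note: confirmatory quantitative high-throughput screen measuring inhibition of hERG channel activity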
Sequence of Voltage-gated inwardly rectifying potassium channel KCNH2 (Q12809 whole entry): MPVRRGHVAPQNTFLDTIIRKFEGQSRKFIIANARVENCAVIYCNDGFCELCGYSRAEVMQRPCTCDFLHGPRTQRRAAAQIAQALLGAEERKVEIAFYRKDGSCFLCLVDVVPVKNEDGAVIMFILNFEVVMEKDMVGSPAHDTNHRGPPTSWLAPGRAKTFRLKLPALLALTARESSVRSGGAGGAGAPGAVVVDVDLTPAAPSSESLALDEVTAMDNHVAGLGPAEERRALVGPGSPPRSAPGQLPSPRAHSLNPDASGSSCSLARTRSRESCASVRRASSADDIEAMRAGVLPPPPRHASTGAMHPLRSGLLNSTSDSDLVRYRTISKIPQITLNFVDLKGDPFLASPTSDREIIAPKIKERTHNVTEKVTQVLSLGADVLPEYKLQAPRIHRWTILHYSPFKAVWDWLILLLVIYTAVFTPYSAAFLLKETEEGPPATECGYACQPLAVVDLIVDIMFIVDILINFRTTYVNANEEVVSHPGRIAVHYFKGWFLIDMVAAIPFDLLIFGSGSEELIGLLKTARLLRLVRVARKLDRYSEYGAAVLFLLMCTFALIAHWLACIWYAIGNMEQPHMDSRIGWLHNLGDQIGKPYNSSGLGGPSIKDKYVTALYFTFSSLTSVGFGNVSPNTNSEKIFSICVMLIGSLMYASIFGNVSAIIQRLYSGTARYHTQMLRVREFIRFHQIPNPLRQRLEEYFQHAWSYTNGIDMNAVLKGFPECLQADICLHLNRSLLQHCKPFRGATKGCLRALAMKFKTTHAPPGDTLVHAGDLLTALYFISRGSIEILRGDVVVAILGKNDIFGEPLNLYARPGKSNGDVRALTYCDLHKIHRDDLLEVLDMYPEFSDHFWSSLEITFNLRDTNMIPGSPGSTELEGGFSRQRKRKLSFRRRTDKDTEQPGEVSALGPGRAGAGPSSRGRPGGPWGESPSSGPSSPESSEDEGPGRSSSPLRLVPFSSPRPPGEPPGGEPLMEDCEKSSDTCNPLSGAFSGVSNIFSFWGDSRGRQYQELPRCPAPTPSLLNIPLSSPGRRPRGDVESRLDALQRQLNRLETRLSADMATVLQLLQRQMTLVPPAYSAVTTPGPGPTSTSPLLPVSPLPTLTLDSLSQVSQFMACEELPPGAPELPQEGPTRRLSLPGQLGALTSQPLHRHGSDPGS

With `COc1ccccc1CN1CCCC(C(=O)N(C)Cc2ccccc2)C1` (stereo unspecified) the AC50 [1] was 73.3 µM (active), the AC50 (Trypanosoma cruzi) was 10.8 µM (active) and the EC50 [2] was 0.856 µM (active).

In the case of `COc1cccc(N2C(=O)c3cccnc3C2Nc2ccc(C)c(C)c2)c1` (stereo unspecified), the IC50 (Hexokinase HKDC1) is reported as > 80 µM (inactive) and the IC50 (Hexokinase-1) is reported as > 80 µM (inactive).

In the case of `CC(C)(C)c1ccc(S(=O)(=O)/C=C/C#N)cc1` [BAY-11-7085], the AC50 [3] is reported as 35.5 µM (inconclusive).
